Reference: ChEMBL document CHEMBL1201862, “PubChem BioAssay data set” (2004)
Active and inactive are the calls of the source.

Legend:
[1] = A cytotoxicity screen of small molecule inhibitors of the PhoP region in Salmonella typhi identified in the primary screen. [Related pubchem assays: 1850, 1864, 1985 ]; type: functional
INS1 = experiment: beta cell apoptosis inhibitors, cytokine rescue, dose response, luminescence, retest (AID 449756); type: functional, cell-based; conditions: Rattus norvegicus;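 further: cell death triggered by IL-1 beta plus TNF-alpha plus IFN-gamma mixture; protective hits raise ATP signal compared with cytokine alone wells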
Vasopressin V1a receptor = Vasopressin V1a receptor (Homo sapiens, UniProt P37288); experiment: Counterscreen for Oxytocin Receptor (OXTR) agonists: Fluorescence-based cell-based high throughput dose response assay to identify agonists of the vasopressin 1 receptor (V1R). [Related pubchem assays: 2435 (Primary screen (OXTR agonists in singlicate)), 434991 (Counterscreen (V1R agonists in triplicate)), 2482 (Summary (OXTR agonists)) …; type: functional
Oxytocin receptor = Oxytocin receptor (Homo sapiens, UniProt P30559); experiment: Fluorescence-based cell-based high throughput dose response assay for agonists of the Oxytocin Receptor (OXTR). [Related pubchem assays: 2435 (Primary screen (OXTR agonists in singlicate)), 434991 (Counterscreen (V1R agonists in triplicate)), 2482 (Summary (OXTR agonists)), 434963 (Confirmation screen (OXTR agonists in triplicate))]; type: functional
Cytochrome P450 2C19 = Cytochrome P450 2C19 (Homo sapiens, UniProt P33261); experiment: Cytochrome panel assay with activity outcomes. Panel member name: p450-cyp2c19 Compounds with AC50 equal or less than 10 uM are considered active; type: functional; conditions: read-out: AC50
Cytochrome P450 2D6 [2] = target: T1, Cytochrome P450 2D6 (Homo sapiens, UniProt P10635)
[3] = target: Voltage-gated inwardly rectifying potassium channel KCNH2 (Homo sapiens, UniProt Q12809); conditions: Potency;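 further: confirmatory quantitative high-throughput screen measuring inhibition of hERG channel activity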
Cytochrome P450 2D6 [4] = target: T1, Cytochrome P450 2D6; experiment: qHTS Assay for Inhibitors and Substrates of Cytochrome P450 2D6. [Related pubchem assays: 410 ]; type: ADME; conditions: read-out: Potency
[5] = cytotoxicity in HEK-293T cells, dose response, cytotoxicity control for TCR NF-kB inhibitor project, luminescence, T-cell screen hits (AID 489026); type: functional, cell-based;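 further: cells exposed to compound about 14 hours before the viability readout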
[6] = target: T2, Alkaline phosphatase, tissue-nonspecific isozyme (Homo sapiens, UniProt P05186)
T2 sequence (P05186 whole entry): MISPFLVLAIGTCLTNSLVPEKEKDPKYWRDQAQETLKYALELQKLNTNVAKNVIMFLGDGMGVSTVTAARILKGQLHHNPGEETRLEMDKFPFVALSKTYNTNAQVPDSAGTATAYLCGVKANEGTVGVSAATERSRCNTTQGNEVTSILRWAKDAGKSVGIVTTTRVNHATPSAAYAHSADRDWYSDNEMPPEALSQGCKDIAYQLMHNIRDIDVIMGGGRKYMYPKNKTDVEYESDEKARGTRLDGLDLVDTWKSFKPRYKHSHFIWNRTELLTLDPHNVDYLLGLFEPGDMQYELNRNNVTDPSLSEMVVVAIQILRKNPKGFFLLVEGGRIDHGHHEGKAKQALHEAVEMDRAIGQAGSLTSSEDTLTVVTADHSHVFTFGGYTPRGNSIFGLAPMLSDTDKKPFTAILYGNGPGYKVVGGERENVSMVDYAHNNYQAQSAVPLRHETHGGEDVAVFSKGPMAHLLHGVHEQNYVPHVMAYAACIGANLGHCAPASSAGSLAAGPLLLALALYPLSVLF

[7] = cytotoxicity in HPDE-C7 cells, cell-based, fluorescence, HTS (AID 430); type: functional; conditions: Homo sapiens
Streptococcus = experiment: Group A Streptococcus viability loss, dose response, counter-screen for streptokinase expression inhibitor project, luminescence, BacTiterGlo (AID 1915); type: functional, organism-based;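 further: potency for reduction of bacterial viability or growth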
[8] = target: T3, Sphingosine 1-phosphate receptor 4 (Homo sapiens, UniProt O95977); experiment: Fluorescence dose response cell-based high throughput screening assay for antagonists of the Sphingosine 1-Phosphate Receptor 4 (S1P4). [Related pubchem assays: 1524 (Confirmation in triplicates.), 1510 (Primary screen.)]; type: functional
T3 sequence (O95977 whole entry): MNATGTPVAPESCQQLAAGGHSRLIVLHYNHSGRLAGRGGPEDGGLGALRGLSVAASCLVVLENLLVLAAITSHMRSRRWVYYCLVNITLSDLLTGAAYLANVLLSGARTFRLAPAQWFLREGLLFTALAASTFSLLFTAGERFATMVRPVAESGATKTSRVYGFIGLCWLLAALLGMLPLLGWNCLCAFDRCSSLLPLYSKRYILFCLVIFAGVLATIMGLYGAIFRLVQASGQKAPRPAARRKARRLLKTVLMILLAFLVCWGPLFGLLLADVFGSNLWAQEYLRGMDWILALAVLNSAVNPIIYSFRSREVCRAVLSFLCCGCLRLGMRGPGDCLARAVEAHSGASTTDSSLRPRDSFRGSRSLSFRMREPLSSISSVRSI

[9] = THP-1 cell cytotoxicity, dose response, cytotoxicity control for non-replicating M. tuberculosis project (AID 489025); type: functional
[10] = HepG2 cell cytotoxicity, dose response, cytotoxicity control for Shn3 inhibitor project, CellTiter-Glo, cherry-picked (AID 624134); type: functional, cell-based
[11] = test system: Streptococcus sp. 'group A'; experiment: growth inhibition of control SK(-) GAS strain, dose response, counter-screen for streptokinase expression inhibitor project, luminescence, kanamycin, BacTiterGlo, confirmation (AID 1900); type: functional, organism-based
[12] = target: T4, Heat shock factor protein 1 (Mus musculus, UniProt P38532); experiment: HSF1 potentiators in luciferase reporter cells, confirmation, cell-based, NIH3T3, luminescence, dose retest (AID 435004); type: functional;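 further: stress induced by proteasome inhibitor MG132 added 30 min after compound; luciferase reporter driven by HSF1 response element in NIH3T3 cells; actives raise luminescence as potentiators of the MG132 stress response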
T4 sequence (P38532 whole entry): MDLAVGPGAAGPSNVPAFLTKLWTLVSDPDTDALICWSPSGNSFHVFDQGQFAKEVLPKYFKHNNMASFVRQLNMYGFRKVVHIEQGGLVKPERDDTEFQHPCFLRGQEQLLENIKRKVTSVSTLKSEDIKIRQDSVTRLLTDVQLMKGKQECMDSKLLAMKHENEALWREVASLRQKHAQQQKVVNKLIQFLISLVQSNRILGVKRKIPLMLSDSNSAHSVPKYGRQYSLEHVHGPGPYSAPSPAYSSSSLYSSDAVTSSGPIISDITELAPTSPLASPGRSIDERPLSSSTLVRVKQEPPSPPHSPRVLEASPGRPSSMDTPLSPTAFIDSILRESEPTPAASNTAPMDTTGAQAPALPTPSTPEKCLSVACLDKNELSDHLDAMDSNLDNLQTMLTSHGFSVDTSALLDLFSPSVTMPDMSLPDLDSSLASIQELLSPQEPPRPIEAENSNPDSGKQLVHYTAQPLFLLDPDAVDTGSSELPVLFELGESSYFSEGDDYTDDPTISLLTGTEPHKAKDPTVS

[13] = growth suppression of PTEN-null colon cells, dose response, cell-based, HCT116 PTEN knockout (AID 1047); type: functional;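 further: HCT116 colon tumor cells with PTEN knocked out; cells exposed to compound for 60 hours before readout; potency for loss of cell viability measured by luminescence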
cells = type: functional
[14] = target: Sphingosine 1-phosphate receptor 1 (Homo sapiens, UniProt P21453); type: functional;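 further: Tango beta-arrestin reporter U2OS cells stimulated with S1P near its EC80; inhibitor potency meaning antagonism of receptor activation by the natural agonist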
[15] = HepG2 cell cytotoxicity, dose response, cytotoxicity control for non-replicating M. tuberculosis project (AID 489018); type: functional; conditions: Mycobacterium tuberculosis
[16] = microbe, parasite or virus in culture; type: functional; conditions: Mycobacterium tuberculosis
[17] = cytotoxicity in KRAS-transformed pancreatic duct cells, primary screen, cell-based, fluorescence, HTS (AID 431); type: functional; conditions: Homo sapiens;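 further: cell line used: HPDE-C7K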
[18] = growth suppression of beta-catenin-knockout colon cells, dose response, cell-based, HCT116, human colon tumor (AID 1045); type: functional;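 further: HCT116 colon tumor cells with beta catenin knocked out; cells exposed to compound for 60 hours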
[19] = Shn3 3'UTR reporter inhibitors, dose response, cell-based, Clone20 osteoblasts, firefly luciferase, cherry-picked (AID 624132); type: functional;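 further: firefly luciferase luminescence from reporter carrying the Shn3 3'UTR in osteoblasts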
[20] = Vero E6 cell cytotoxicity, dose response, cytotoxicity control for non-replicating M. tuberculosis project, secondary assay (AID 492998); type: functional, VeroE6; conditions: Vero C1008

T1 sequence (P10635 whole entry): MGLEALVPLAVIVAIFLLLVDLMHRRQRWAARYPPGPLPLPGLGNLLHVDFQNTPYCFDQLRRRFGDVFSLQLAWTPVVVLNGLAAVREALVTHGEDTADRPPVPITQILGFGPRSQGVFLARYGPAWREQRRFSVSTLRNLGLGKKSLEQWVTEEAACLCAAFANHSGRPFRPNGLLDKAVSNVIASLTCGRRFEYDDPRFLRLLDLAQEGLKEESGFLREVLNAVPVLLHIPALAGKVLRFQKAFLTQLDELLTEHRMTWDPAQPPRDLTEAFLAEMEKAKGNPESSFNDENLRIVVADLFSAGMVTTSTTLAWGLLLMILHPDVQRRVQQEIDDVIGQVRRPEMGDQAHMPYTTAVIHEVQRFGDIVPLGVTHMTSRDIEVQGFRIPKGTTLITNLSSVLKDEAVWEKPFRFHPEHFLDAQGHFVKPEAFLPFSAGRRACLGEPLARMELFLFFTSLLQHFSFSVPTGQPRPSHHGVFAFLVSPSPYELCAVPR
Chain of Oxytocin receptor (P30559 whole entry): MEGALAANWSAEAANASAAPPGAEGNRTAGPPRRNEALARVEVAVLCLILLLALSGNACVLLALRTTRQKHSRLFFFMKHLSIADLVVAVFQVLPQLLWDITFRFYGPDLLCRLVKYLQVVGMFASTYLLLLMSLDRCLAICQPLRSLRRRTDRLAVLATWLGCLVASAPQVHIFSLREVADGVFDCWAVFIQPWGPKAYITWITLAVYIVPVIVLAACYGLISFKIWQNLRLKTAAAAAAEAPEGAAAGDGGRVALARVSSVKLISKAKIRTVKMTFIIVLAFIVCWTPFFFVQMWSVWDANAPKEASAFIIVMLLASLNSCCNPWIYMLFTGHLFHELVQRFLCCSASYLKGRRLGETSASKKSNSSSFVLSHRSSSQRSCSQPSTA
Chain of Vasopressin V1a receptor (P37288 whole entry): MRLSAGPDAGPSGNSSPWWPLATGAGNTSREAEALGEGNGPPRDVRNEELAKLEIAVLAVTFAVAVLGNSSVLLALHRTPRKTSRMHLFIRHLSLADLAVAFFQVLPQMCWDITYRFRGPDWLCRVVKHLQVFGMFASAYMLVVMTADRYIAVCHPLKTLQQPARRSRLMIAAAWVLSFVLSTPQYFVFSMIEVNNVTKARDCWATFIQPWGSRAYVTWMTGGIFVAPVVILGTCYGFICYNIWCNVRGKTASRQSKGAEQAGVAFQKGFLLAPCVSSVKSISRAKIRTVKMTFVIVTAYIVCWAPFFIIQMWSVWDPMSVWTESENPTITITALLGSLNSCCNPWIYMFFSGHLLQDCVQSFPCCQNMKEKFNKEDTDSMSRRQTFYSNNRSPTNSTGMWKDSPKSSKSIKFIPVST
Chain of Sphingosine 1-phosphate receptor 1 (P21453 whole entry): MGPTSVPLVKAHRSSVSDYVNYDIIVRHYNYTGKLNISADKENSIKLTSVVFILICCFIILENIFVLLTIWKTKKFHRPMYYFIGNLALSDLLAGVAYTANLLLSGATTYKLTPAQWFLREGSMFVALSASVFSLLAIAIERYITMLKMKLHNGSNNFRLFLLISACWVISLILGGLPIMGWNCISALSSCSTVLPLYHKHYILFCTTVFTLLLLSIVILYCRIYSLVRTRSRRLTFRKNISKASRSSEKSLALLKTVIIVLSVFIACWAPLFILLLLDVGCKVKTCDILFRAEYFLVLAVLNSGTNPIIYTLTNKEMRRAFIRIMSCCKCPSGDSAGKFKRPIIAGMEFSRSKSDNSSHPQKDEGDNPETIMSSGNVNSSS
Chain of Cytochrome P450 2C19 (P33261 whole entry): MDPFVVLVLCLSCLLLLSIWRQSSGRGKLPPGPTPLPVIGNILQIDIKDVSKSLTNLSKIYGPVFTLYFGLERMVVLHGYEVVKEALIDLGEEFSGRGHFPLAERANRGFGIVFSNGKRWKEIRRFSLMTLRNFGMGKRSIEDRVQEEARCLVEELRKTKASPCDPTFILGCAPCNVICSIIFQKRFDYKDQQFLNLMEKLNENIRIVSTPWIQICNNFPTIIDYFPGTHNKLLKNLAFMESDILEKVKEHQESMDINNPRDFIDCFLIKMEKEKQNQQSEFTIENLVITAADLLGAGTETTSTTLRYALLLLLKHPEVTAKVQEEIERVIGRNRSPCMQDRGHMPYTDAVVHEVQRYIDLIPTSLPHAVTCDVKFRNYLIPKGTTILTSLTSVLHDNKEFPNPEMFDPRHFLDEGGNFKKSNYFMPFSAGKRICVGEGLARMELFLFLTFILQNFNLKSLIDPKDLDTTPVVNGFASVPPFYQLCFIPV
Chain of Voltage-gated inwardly rectifying potassium channel KCNH2 (Q12809 whole entry): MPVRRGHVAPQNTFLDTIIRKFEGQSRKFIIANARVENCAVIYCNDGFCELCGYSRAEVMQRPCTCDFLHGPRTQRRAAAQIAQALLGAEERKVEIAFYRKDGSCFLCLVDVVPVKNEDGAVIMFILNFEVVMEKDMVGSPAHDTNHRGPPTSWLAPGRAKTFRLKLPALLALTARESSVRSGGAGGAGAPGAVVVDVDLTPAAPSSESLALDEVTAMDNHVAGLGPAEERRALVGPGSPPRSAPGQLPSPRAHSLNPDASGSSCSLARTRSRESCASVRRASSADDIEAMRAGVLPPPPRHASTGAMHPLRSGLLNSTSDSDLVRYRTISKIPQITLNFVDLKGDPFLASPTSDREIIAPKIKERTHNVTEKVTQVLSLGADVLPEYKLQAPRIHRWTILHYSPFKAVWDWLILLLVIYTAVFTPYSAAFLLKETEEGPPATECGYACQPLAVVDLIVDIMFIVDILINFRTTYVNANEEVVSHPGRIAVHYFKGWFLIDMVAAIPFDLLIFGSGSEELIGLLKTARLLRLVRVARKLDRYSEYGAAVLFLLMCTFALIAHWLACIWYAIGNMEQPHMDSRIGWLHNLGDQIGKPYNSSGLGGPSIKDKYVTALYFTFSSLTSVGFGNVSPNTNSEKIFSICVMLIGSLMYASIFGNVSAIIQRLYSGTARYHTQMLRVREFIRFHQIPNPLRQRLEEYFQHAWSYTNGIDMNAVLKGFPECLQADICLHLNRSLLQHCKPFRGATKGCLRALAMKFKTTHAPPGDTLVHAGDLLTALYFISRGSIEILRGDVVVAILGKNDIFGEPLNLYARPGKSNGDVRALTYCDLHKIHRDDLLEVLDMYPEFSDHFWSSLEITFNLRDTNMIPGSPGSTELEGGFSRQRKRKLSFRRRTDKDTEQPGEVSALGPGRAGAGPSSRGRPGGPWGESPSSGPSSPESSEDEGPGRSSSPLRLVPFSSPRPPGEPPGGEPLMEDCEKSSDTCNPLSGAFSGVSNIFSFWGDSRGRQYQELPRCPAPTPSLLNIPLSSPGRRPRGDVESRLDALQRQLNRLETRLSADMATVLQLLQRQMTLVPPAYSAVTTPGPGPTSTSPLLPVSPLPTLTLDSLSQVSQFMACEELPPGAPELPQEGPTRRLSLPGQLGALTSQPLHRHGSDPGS

O=C(c1ccc2c(c1)nc(S)n1c3ccccc3nc21)N1CCN(c2cccc(Cl)c2)CC1
EC50 [1]: > 50 µM (active)
AC50 (INS1): 8.62 µM (active)

CC(Oc1ccc(F)cc1)C(=O)Nc1ccc(S(=O)(=O)NC2=NCCCCC2)cc1 (stereo unspecified)
EC50 (Vasopressin V1a receptor): > 29.9 µM (not active)
EC50 (Oxytocin receptor): > 29.9 µM (not active)

O=C(CCc1ccc(O)cc1)c1c(O)cc(O)cc1O [PHLORETIN]
AC50 (Cytochrome P450 2C19): 20 µM (inconclusive)
AC50 (Cytochrome P450 2D6 [2]): 39.8 µM (inconclusive)
AC50 [3]: 12.6 µM (inconclusive)
AC50 (Cytochrome P450 2D6 [4]): 25.1 µM (inconclusive)

CCOC(=O)c1ccc2nc(Nc3nc4ccc(F)cc4s3)sc2c1
IC50 [5]: > 80 µM (inactive)
EC50 [6]: 33.6 µM (active)

Cc1ccc(S(=O)(=O)Nc2cccc3ncccc23)s1
EC50 [7]: 11.3 µM (active)
EC50 (Streptococcus): 10.1 µM (active)
IC50 [8]: 0.611 µM (active)
CC50 [9]: 6.44 µM (active)
AC50 [10]: 9.75 µM (active)
EC50 [11]: 1.78 µM (active)
EC50 [12]: 3.91 µM (active)
EC50 [13]: 1.73 µM (active)
IC50 (cells): 2.01 µM (active)
IC50 [14]: 1.19 µM (active)
CC50 [15]: 6.97 µM (active)
CC50 [16]: 6.47 µM (active)
EC50 [17]: 10.3 µM (active)
EC50 [18]: 1.46 µM (active)
AC50 [19]: 3.85 µM (active)
CC50 [20]: 4.2 µM (active)
